Reference: patent publication US6800674B2, “Anthraquinone compound and water-based ink-jet recording ink containing the compound” (Mitsui Chemicals, Inc., priority 2000, dated 2004)

Legend:
Type in all cases: physicochemical
[1] = Evaluation of emulsification (visual, in production of emulsion ink); conditions: ink produced as in Example 1
Experimental: (§1) Glycerin and water were added to the dispersion (A) of colored resin fine particles to obtain aqueous ink having a solid content of 15% by weight. This aqueous ink was used, and filled in an ink cartridge for a piezo-type ink jet printer, and printing and image recording were conducted with the same printer. The test was conducted on the following items.
(A) Evaluation of Emulsification
The emulsification condition in the production of emulsion ink was visually observed, and evaluated.

[2] = Solvent solubility of the coloring matter; conditions: for solubility of the coloring matter (in words): ink produced as in Example 1
[3] = Evaluation of water resistance (OD1 after/before dipping in water); conditions: aqueous ink, OD1 after dipping in water and air-drying
Experimental: as §1
(D) Evaluation of Water Resistance
With respect to a printed portion of a plain paper having a recorded image thereon for test, printing density (OD value) was measured with a reflection densitometer before dipping in water and after dipping in water and air-drying. Water resistance was evaluated upon comparing OD1.
OD1=(OD value after dipping in water and air-drying)/(OD value before dipping in water)×100[%]

[4] = Evaluation of light fastness (xenon fadeometer, OD2); conditions: for E (Evaluation of light fastness): aqueous ink, ink production process Example 1, OD2 after 100 hours of irradiation
Experimental: as §1
(E) Evaluation of Light Fastness
Printing density (OD value) was measured using a xenon fadeometer (manufactured by Suga Shikenki) before irradiation and after 100 hours of irradiation. Light fastness was evaluated upon comparing OD2.
OD2=(OD value after irradiation)/(OD value before irradiation)×100[%]

[5] = as above; conditions: aqueous ink, ink production process Example 2; OD2 after 100 hours of irradiation
[6] = Absorption in toluene solution
[7] = ink production process Example 1
[8] = ink production process Example 2

| SMILES | evaluation of emulsification (in words) [1] | solubility of the coloring matter (in words) [2] | D (Evaluation of water resistance) [3, 7] | E (Evaluation of light fastness) [4] | light fastness (in words) [4] | solubility in toluene ([2]; toluene, room temperature) | E (Evaluation of light fastness) [5] | D (Evaluation of water resistance) [3, 8] | gram absorption coefficient (εg) [6] | maximum absorption wavelength (λmax) [6] |
| --- | --- | --- | --- | --- | --- | --- | --- | --- | --- | --- |
| O=C1c2ccccc2C(=O)c2c1ccc(O)c2O [Comparative Example 1, reference compound] | poor emulsification | low | X (OD value is less than 50%.) | X (OD value is less than 50%.) | – | – | – | – | – | – |
| COc1cc(N)c2c(c1N)C(=O)c1ccccc1C2=O [Comparative Example 2, reference compound] | – | low | Δ (OD value is 50 to less than 70%.) | X (OD value is less than 50%.) | extremely bad | – | – | – | – | – |
| CNc1cccc2c1C(=O)c1ccccc1C2=O [Comparative Example 3, reference compound] | – | low | ◯ (OD value is 70 to less than 80%.) | X (OD value is less than 50%.) | extremely bad | – | – | – | – | – |
| CCCCN(CCCC)c1cccc(Oc2cc(O)c3c(c2N)C(=O)c2ccccc2C3=O)c1 [compound 9] | – | – | ⊚⊚ (OD value is 90 to 100%.) | ⊚⊚ (OD value is 90 to 100%.) | – | ≥ 40% | ⊚⊚ (OD value is 90 to 100%.) | ⊚⊚ (OD value is 90 to 100%.) | 30,200 ml/g·cm | 517 nm |
| CCCCCCN(CCCCCC)c1cccc(Oc2cc(O)c3c(c2N)C(=O)c2ccccc2C3=O)c1 [compound 10] | – | – | ⊚⊚ (OD value is 90 to 100%.) | ⊚⊚ (OD value is 90 to 100%.) | – | – | ⊚⊚ (OD value is 90 to 100%.) | ⊚⊚ (OD value is 90 to 100%.) | – | – |
| CCCC(C)N(c1cccc(Oc2cc(O)c3c(c2N)C(=O)c2ccccc2C3=O)c1)C(C)CCC (stereo not drawn) [compound 11] | – | – | ⊚⊚ (OD value is 90 to 100%.) | ⊚⊚ (OD value is 90 to 100%.) | – | – | ⊚⊚ (OD value is 90 to 100%.) | ⊚⊚ (OD value is 90 to 100%.) | – | – |
| Nc1c(Oc2ccc(C(c3ccccc3)c3ccccc3)cc2)cc(O)c2c1C(=O)c1ccccc1C2=O [compound 12] | – | – | ⊚ (OD value is 80 to less than 90%.) | ◯ (OD value is 70 to less than 80%.) | – | – | ◯ (OD value is 70 to less than 80%.) | ⊚ (OD value is 80 to less than 90%.) | – | – |
| CCN(CC)c1cccc(Oc2cc(O)c3c(c2N)C(=O)c2cc(C)ccc2C3=O)c1 [compound 13] | – | – | ⊚⊚ (OD value is 90 to 100%.) | ⊚⊚ (OD value is 90 to 100%.) | – | – | ⊚⊚ (OD value is 90 to 100%.) | ⊚⊚ (OD value is 90 to 100%.) | – | – |
| CCCCN(CCCC)c1cccc(Oc2cc(O)c3c(c2N)C(=O)c2ccc(CC)cc2C3=O)c1 [compound 14] | – | – | ⊚⊚ (OD value is 90 to 100%.) | ⊚⊚ (OD value is 90 to 100%.) | – | – | ⊚⊚ (OD value is 90 to 100%.) | ⊚⊚ (OD value is 90 to 100%.) | – | – |
| CCc1ccc2c(c1)C(=O)c1c(O)cc(Oc3cccc(N(CC)CC)c3)c(N)c1C2=O [compound 15] | – | – | ⊚⊚ (OD value is 90 to 100%.) | ⊚ (OD value is 80 to less than 90%.) | – | – | ⊚ (OD value is 80 to less than 90%.) | ⊚⊚ (OD value is 90 to 100%.) | – | – |
| CCN(CC)c1cccc(Oc2cc(O)c3c(c2N)C(=O)c2ccc(OC)cc2C3=O)c1 [compound 16] | – | – | ⊚ (OD value is 80 to less than 90%.) | ⊚ (OD value is 80 to less than 90%.) | – | – | ⊚ (OD value is 80 to less than 90%.) | ⊚ (OD value is 80 to less than 90%.) | – | – |
| CCCCCCN(CCCCCC)c1cccc(Oc2cc(O)c3c(c2N)C(=O)c2cccc(C)c2C3=O)c1 [compound 18] | – | – | ⊚⊚ (OD value is 90 to 100%.) | ⊚⊚ (OD value is 90 to 100%.) | – | – | ⊚⊚ (OD value is 90 to 100%.) | ⊚⊚ (OD value is 90 to 100%.) | – | – |
